In series [1] the target is T1, recombinant wild type human EGFR kinase domain (Homo sapiens, UniProt P00533).
T1 construct: A recombinant wild type human EGFR kinase domain expressed in Sf9 insect cells; GST; made in house; host or cells: Sf9 insect cells
As to the kind of experiment: Radiometric protein kinase enzymatic assay. The class given is biochemical. Particulars: text value (FIG. 1). The text has this: Except Tarceva® or Erlotinib which was purchased from LC Laboratories, all the screened compounds were purchased from Sigma-Aldrich. A recombinant wild type human EGFR kinase domain expressed in Sf9 insect cells as a GST-fusion protein was used in the enzymatic assay. The recombinant protein was purified by a GSH-affinity column and the purity of the protein was examined by SDS-PAGE/Coomassie staining and the identity was checked by mass spectroscopy. A radiometric protein kinase assay was used for measuring the kinase activity of the EGFR protein kinase. All the assays were performed in 96-well FlashPlates™ from PerkinElmer (Boston, Mass., USA) in a 50 µL, reaction volume. […] The reaction cocktails were incubated at 30° C. for 60 minutes. […] Incorporation of ^33Pi was determined with a microplate scintillation counter. […]
The median value of the counts in column 1 (n=8) of each assay plate was defined as “low control”. This value reflects unspecific binding of radioactivity to the plate in the absence of a protein kinase but in the presence of the substrate. […] The residual activity (in %) for each well of a particular plate was calculated by using the following formula: […]
The residual activities for each concentration and the drug IC50 values were calculated using GraphPad Prism software. […]

In the next series the test system is A549. As to the kind of experiment: 3D cell proliferation assay (soft agar), A549. The class given is cell-based, human. The note with it: Homo sapiens, 3D soft agar. The method, then:
Drug nsl-8 was further subjected to a 3D cell proliferation assay for assessing its potential in inhibiting the growth of NSCLC tumors. The same four NSCLC cell lines used in 2D proliferation assays were grown in soft agar and the drug was added after the agar has solidified. The drug added cells were then incubated several days until colonies have formed in the solvent control. Subsequently, Alamar Blue which was a cell viability reagent was added and the corresponding fluorescence released was measured as an indirect quantification of colony growth in soft agar.
For each cell line, some 96 well culture plates were prepared. 100 μL of the soft agar bottom layer (0.6% final concentration in complete medium) was poured and left to solidify. 50 μL of the soft agar top layer (0.4% final concentration) containing the corresponding cells and cell number were then added on top, solidified and such 96 well plates were incubated overnight at 37° C. in 10% CO2. Next day, drugs were added at indicated final concentrations into the inner wells of the plate. Subsequently, the assays were incubated in cell culture incubators for the indicated period of time. Finally, the assays were developed using Alamar Blue and upon 3-5 h of incubation at 37 ° C. fluorescence intensity was determined (excitation: 560 nm, emission: 590 nm). […]

The test system of the next series is HCC827 implanted tumors. As to the kind of experiment: Subcutaneous HCC827 xenograft model, groups 3a-3c, o.p. The note with it: for Tumor inhibition rate (%): HCC827, o.p. once daily, NSL-8 70 mpk, Tarceva 20 mpk. As for the experimental part: The antitumor efficacy of the drug lead nsl-8 searched was studied using the subcutaneous xenografted A549 and HCC827 lung cancer tumor models in vivo. […] Mice were maintained in individual ventilated cages (IVC, max. 4 mice/cage) at constant temperature and humidity. Animal weights were determined three times (Monday, Wednesday and Friday) for groups 1a and 1b or two times (Monday and Thursday) for groups 2a-2c and 3a-3c animals. Animal behaviour was monitored daily.
On day 0, either 2×10^6 A549 or 2×10^6 HCC827 tumor cells in 100 μL PBS were implanted into the subcutaneous space of the left flank of all corresponding BALB/c nude and SCID mice, respectively. In the following, tumor sizes were determined by caliper measurement. Tumor sizes were calculated according to the formula W^2×Lg/2 (Lg=length and W=the perpendicular width of the tumor, L>W). On day 48 or 30, after mean tumor volumes had reached approx. 100 mm^3, the corresponding tumor-bearing animals were randomized into 2 groups of 8 (A549 model: groups 1a and 1b) or 10 animals (A549 model: groups 2a and 2b) according to tumor sizes. On day 24 or 28, after mean tumor volumes had reached approx. 100 mm^3, the corresponding tumor-bearing animals were randomized into 2 groups of 10 animals (HCC827 model: groups 3a and 3b) according to tumor sizes. […] The percentage of tumor growth inhibition (TGI) was calculated using the following formula: […]
where T and C represent the mean tumor volume of the treatment and the control group, respectively.
The solution was aliquoted into several 15 ml sterile centrifuge tubes in 650 μl quantity per tube and then stored frozen at −80° C. until use. […] Animals of group 1b received 40 mg/kg nsl-8 dosage solution once daily through i.p. route on days 48-52 and 62-66, while those of groups 2b and 3b received 70 mg/kg nsl-8 dosage solution once daily through o.p. route on days 1-14 (group 2b) and days 1-14 (group 3b), respectively (Table 4).
Groups 1a and 1b (A549 model) were terminated on day 69, while groups 2a-2c (A549 model) and 3a-3c (HCC827 model) were terminated on day 15. At necropsy, animals were killed by cervical dislocation. Primary tumor weights and volumes were determined. The tumor volume and weight were analysed using descriptive data analysis (Mean, SEM, Median). Statistical analysis of efficacy data was performed using the unpaired t-test. All the data analyses were performed using GraphPad Prism 5 from GraphPad Software, Inc., San Diego, USA.
The serum level of blood urea nitrogen (BUN) was measured for assessing the renal function while those of alanine aminotransferase (ALT) and aspartate aminotransferase (AST) were measured using Ektachem DT system (Johnson & Johnson Clinical Diagnostics) for assessing the liver function. The EDTA treated anticoagulated blood samples were also collected for making a complete peripheral blood count by using a Hematology Analyzer (Sysmex, XT-1800i).
For this study, 0.161 ml nsl-8 stock solution made in DMSO was mixed with 1.339 ml 0.9% w/v saline so that the volume of a final dosage solution prepared to feed an animal was 1.5 ml and containing 10% DMSO. Therefore, both administration routes and vehicles used in treating groups 2a-2b and 3a-3b animals were quite different from that used in treating groups 1a-1b animals.

Results on 1 compound are retold here after patent US20160113895A1, “Novel Use of Adapalene in Treating Esophageal Cancer and Gastrointestinal Stromal Tumor” (Biodelight Biotech Inc., priority 2013, published 2016).

For orientation: IC50 means the concentration at which inhibition is half-maximal.

Structures are written as SMILES.

T1 sequence (P00533 712-979 limits assumed): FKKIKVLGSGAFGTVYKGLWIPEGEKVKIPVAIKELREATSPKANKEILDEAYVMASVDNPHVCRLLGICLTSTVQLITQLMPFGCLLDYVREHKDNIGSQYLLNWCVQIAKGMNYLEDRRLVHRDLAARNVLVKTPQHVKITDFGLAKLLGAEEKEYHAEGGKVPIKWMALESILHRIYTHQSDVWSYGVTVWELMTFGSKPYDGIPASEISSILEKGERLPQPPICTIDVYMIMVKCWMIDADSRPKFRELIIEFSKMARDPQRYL

As for `COc1ccc(-c2ccc3cc(C(=O)O)ccc3c2)cc1C12CC3CC(CC(C3)C1)C2` [nsl-8, 6-[3-(1-adamantyl)-4-methoxyphenyl]-2-naphthalenecarboxylic acid], the half-maximal inhibitory concentration (IC50) in series [1] is 0.515 µM; in the series with A549 it was 0.99 µM. Moreover, the “Tumor inhibition rate (%)” value with HCC827 implanted tumors (Day 0) stood at 0%; with HCC827 implanted tumors (Day 3), 16.6%; in the series with HCC827 implanted tumors (Day 7), 13.8%; with HCC827 implanted tumors (Day 10), 22.4%; in the series with HCC827 implanted tumors (Day 14) it was 28.7%. For the same compound, the “counts of neutrophils and lymphocytes” value in the series on HCC827 implanted tumors (mouse, in vivo) is on record as “increase”. Moreover, the “counts of red blood cells” value with HCC827 implanted tumors (mouse, in vivo) is listed as “decrease”. In addition, the “serum levels of BUN, ALT, and AST among treatment groups” value in the series with HCC827 implanted tumors (mouse, in vivo) is listed as “no significant difference”. The “total white blood cells and platelets counted versus vehicle” value in the series with HCC827 implanted tumors (mouse, in vivo) was “no significant difference”.
